Data from US20020114854A1, “Chinese herb medicine composition for cancer prophylaxis and therapy” (priority 2001, published 2002).

How the values were obtained:
Type in all cases: cell-based
[1] = system: esophagus cancer cell strain CE-81; test: survival rate of esophagus cancer cell strain CE-81 (CTAQ cell activity, OD 492 nm); design: dose or concentration left out as unconfirmed; conditions: treated 96 hours
Method: Regarding to the cell strain culture in following embodiments, the culture solution of Ham's F 12/DMEM (v/v 1:1) including 10% (v/v) fetus cattle serum (FCS) and antibiotics (100 μg/ml streptomycin, 100 IU/ml penicillin, 1 μg/ml amphotericin) is used for cultivating all cell strains at 37° C., 5% CO2. When the cell grows to 80% full, the cell is washed down by Trypsin-EDTA to do the sub-culture. For the sub-culture, the cell is rinsed by HBSS first, washed down by Trypsin-EDTA, and centrifugated at 1000 rpm, 25° C. for 10 minutes. Sequentially, the cell is diluted by four times culture solution to be continuously cultivated. In addition, the sub-culture is done once per week. […]
The esophagus cancer cell strain, CE-81, is washed down by Trypsin-EDTA, centrifugated, and diluted to a cell concentration of 10^6 cells/ml by FCS-free culture solution. […] After different treating time, the cell strain CE-81 is added […] cell activity detecting agent CTAQTM, and the cell activity is detected at OD 492 nm by multiple frequency scanner. […] Thus, the survival rate of cell (%) is obtained via comparing the determined value difference between after and before adding CTAQ with the standard curve by intercalation.

[2] = system: ovary cancer cell strain OC-117; test: survival rate of ovary cancer cell strain OC-117 (CTAQ cell activity); conditions: 10 p (20 mg/ml) cis-Platine, treated over 48 hours
[3] = system: bladder cancer cell strain Bladder-3; test: survival rate of bladder cancer cell strain Bladder-3 (CTAQ cell activity); design: dose or concentration left out as unconfirmed; conditions: treated over 48 hours
[4] = system: cervical cancer cell strain CC-135; test: survival rate of cervical cancer cell strain CC-135 (CTAQ cell activity); design: dose or concentration left out as unconfirmed; conditions: 10 p, 1.0 p or 0.1 p cis-Platine, treated 24 hours

SMILES: [NH2][Pt]([NH2])([Cl])[Cl] [cis-Platine]
- survival rate of CE-81 [1]: about 60%
- survival rate of OC-117 [2]: below 20%
- inhibition effect on Bladder-3 (in words) [3]: significant inhibition effect
- survival rate of CC-135 [4]: about 50%
